Measurements from patent US20160089471A1, “SHEET FOR CUTANEOUS APPLICATION CONTAINING VITAMIN E OR AN ESTER THEREOF” (BIO.LO.GA. S.R.L., priority 2013, published 2016).

What was measured:
[1] = system: reconstituted human epidermis Epi-200 EpiDerm™; assay: Release of IL-1α in the culture medium (ELISA); conditions: 18-hour treatment; Tukey Kramer Multiple Comparisons Test
Source text: Further information for better defining the irritation potential was obtained from subsequent measurement of the following parameters: • evaluation of the release, in the culture medium, of the lactate dehydrogenase (LDH), a cytoplasmic enzyme, release of which indicates loss of integrity of the cellular membrane; • evaluation of the release, in the culture medium, of pro-inflammatory cytokine by means of ELISA (Enzyme Linked Immunosorbent Assay).
Tissue used: EPI-200-SIT EpiDerm™
Culture medium: EPI-100-MM-HCF-60
(§1) Incubation conditions: +37° C. in a 5% CO2 atmosphere
(§2) Treatment with the sample: • continuous contact and incubation for 18 hours (single) • continuous contact and incubation for 7 days (double)
(§3) Application was carried out by applying about 1 cm^2 of sample (i.e. of the sheet according to the invention obtained as per the example given above) per insert.
Controls Performed for the First Evaluation (18 hours): • Negative control after 18 hours: inserts not treated • Positive control: inserts treated with 0.5% SDS (Sodium Dodecylsulphate) in sterile water during 18 hours of incubation; […]
Evaluation in the culture medium obtained after the period of incubation of the sample with EPI-200. The release is measured by means of specific ELISA.

[2] = system: reconstituted human epidermis Epi-200 EpiDerm™; assay: Cytotoxicity by release of lactate dehydrogenase (LDH) in the culture medium; conditions: 18-hour treatment; Tukey Kramer Multiple Comparisons Test
Procedure: Tissue used: EPI-200-SIT EpiDerm™
Culture medium: EPI-100-MM-HCF-60
as §1, §2, §3
(§4) Controls Performed for the First Evaluation (18 hours): • Negative control after 18 hours: inserts not treated • Positive control: inserts treated with 0.5% SDS (Sodium Dodecylsulphate) in sterile water during 18 hours of incubation;
(§5) Controls Performed for the 7-Day Evaluation: • Negative control: inserts not treated with the sample and kept for 7 days in the same incubation conditions as those treated with the sample.
Evaluation of the Cytotoxicity by Means of Measurement of the Release of the Lactate Dehydrogenase (LDH) in the Culture Medium:
Evaluation in the culture medium obtained after the incubation period of the sample with the epidermis model. The culture medium is incubated with a specific reagent so as to allow quantitive determination of the lactate dehydrogenase at 490 nm.

[3] = system: reconstituted human epidermis Epi-200 EpiDerm™; assay: Cellular vitality by MTT assay on reconstituted epidermis (EpiDerm Skin Irritation Test, cumulative irritation); conditions: 18-hour treatment
Procedure: The assay in question was based on the In vitro Epiderm™ Skin Irritation Test (EPI-200-SIT) developed by the MatTek Corporation, which uses the model of reconstituted human epidermis Epi-200 EpiDerm™.
The assay consists in topical application of the material under testing on the reconstituted epidermis for contact times equal to or greater than 18 hours. The irritation potential is determined by means of evaluation of the cellular vitality using the MTT assay.
Tissue used: EPI-200-SIT EpiDerm™
Culture medium: EPI-100-MM-HCF-60
as §1, §2, §4, §5
MTT assay: colorimetric determination of the vitality of the keratinocytes of the insert based on the reduction of the yellow tetrazolium salts (MTT) to blue formazan by mitochondrial dehydrogenases.
continuous stimulation (overnight contact and incubation)

Structure (SMILES): CCCCCCCCCCCCOS(=O)(=O)[O-].[Na+] [Positive control, Sodium Dodecylsulphate]
- Statistical comparison of IL-1α release in relation to the negative control [1]: *** (*** p < 0.001 extremely significant variation)
- Statistical comparison of LDH release in relation to the negative control [2]: *** (*** p < 0.001 extremely significant variation)
- Average value of OD ± SD ([3]; continuous contact): 0.185 ± 0.004
- Average value of the % vitality ([3]; relative to negative control = 100%): 8.40 ± 0.17%
